Test results published in paper PMC11494653, “Teixobactin “Swapmers” with L Tail Stereochemistry Retain Antibiotic Activity” (The Journal of Organic Chemistry, 2024).
≈ marks a conversion by molar mass, not a printed value. Positions of bridges follow the written chain, without caps; N, C: chain ends. Non-standard residues stand in square brackets, D forms with d. Residues, ends and D or L forms follow the SMILES beside them. Chains are numbered I, II in the order given. d(aIle) = CC[C@H](C)[C@@H](N)C(=O)O; dNMeF = CN[C@H](Cc1ccccc1)C(=O)O; Nphe = O=C(O)CNCc1ccccc1

Columns and labels:
Type in all cases: cell-based
[1] = test system: Bacillus subtilis ATCC 6051; test: microbe, parasite or virus in culture; settings: for MIC Bacillus subtilis ATCC 6051 / MIC B. subtilis: ATCC 6051, 16 h
Description: (§1) We determined the MIC values of these teixobactin swapmer prodrugs against the Gram-positive bacteria Bacillus subtilis, Staphylococcus epidermidis, methicillin-susceptible Staphylococcus aureus (MSSA), and methicillin-resistant Staphylococcus aureus (MRSA) in a broth microdilution assay as described previously.[9],[10] We used the antibiotic vancomycin as a positive control and the Gram-negative bacterium Escherichia coli as a negative control. The MIC values for Lys10-teixobactin 1, Lys10-teixobactin prodrug 2, Arg10-teixobactin 6, and Arg10-teixobactin prodrug 7 are shown in Table 1 for comparison with the swapmer analogues.
(§2) We performed minimum inhibitory concentration (MIC) assays as previously described.[9] A concise procedure is detailed below.
(§3) Stock solutions of teixobactin analogues were prepared gravimetrically by dissolving an appropriate amount of peptide in 20 mg/mL sterile DMSO. The stock solutions were stored at −20 °C for subsequent experiments.
(§4) Bacillus subtilis (ATCC 6051), Staphylococcus epidermidis (ATCC 14990), methicillin-susceptible Staphylococcus aureus (MSSA) (ATCC 29213), and Escherichia coli (ATCC 10798) were cultured from glycerol stocks in Mueller-Hinton broth containing 0.002% polysorbate 80 overnight in a shaking incubator at 37 °C. Methicillin-resistant Staphylococcus aureus (MRSA) (ATCC 700698) was cultured from a glycerol stock in brain hearth infusion broth containing 0.002% polysorbate 80 overnight in a shaking incubator at 37 °C. After overnight incubation, each culture was diluted with the appropriate media (containing 0.002% polysorbate 80) to 1 × 10^6 colony-forming units (CFU)/mL as previously described.[12],[15],[16] Briefly, we have previously determined the CFU/mL for each bacterium at OD600 = 0.075 for 200 μL of bacterial culture in a 96-well plate. The OD600 of each overnight culture was determined, and then each culture was diluted to OD600 = 0.075. Cultures were further diluted to achieve 1 × 10^6 CFU/mL solutions.
(§5) Aliquots of the 20 mg/mL peptide stock solutions were diluted to make a 64 μg/mL solution in Mueller-Hinton broth containing 0.002% polysorbate 80 and a 64 μg/mL solution in brain heart infusion broth containing 0.002% polysorbate 80. The solutions were mixed by pipetting to ensure homogeneity. A 200-μL aliquot of a 64 μg/mL solution was transferred to a 96-well plate. 2-fold serial dilutions were made with media containing 0.002% polysorbate 80 across the 96-well plate to achieve a final volume of 100 μL in each well (initial concentrations ranging from 64 to 0.0625 μg/mL). A 100-μL aliquot of a 1 × 10^6 CFU/mL bacterial solution was added to each well in the series, resulting in final bacterial concentrations of 5 × 10^5 CFU/mL in each well. As 100 μL of bacteria were added to each well, the concentration of peptide was also diluted 2-fold (final concentrations ranging from 32 μg/mL to 0.03125 μg/mL). Each plate was covered with a lid and incubated at 37 °C for 16 h. The optical density measurements were measured at 600 nm using a 96-well UV–vis plate reader (MultiSkan GO, Thermo Scientific). The MIC values were taken as the lowest concentration that had no bacterial growth. MIC assays for each compound were performed in triplicate to ensure reproducibility.

[2] = test system: Escherichia coli ATCC 10798; test: microbe, parasite or virus in culture; settings: for MIC Escherichia coli ATCC 10798: ATCC 10798, 16 h
Description: as §1, §2, §3, §4, §5

[3] = test system: Staphylococcus aureus (MRSA) ATCC 700698; test: microbe, parasite or virus in culture; settings: for MIC Staphylococcus aureus (MRSA) ATCC 700698: ATCC 700698, 16 h
Description: as §1, §2, §3, §4, §5

[4] = test system: Staphylococcus aureus (MSSA) ATCC 29213; test: microbe, parasite or virus in culture; settings: for MIC Staphylococcus aureus (MSSA) ATCC 29213: ATCC 29213, 16 h
Description: as §1, §2, §3, §4, §5

[5] = test system: Staphylococcus epidermidis ATCC 14990; test: microbe, parasite or virus in culture; settings: for MIC Staphylococcus epidermidis ATCC 14990: ATCC 14990, 16 h
Description: as §1, §2, §3, §4, §5

all bacteria tested = test: MIC broth microdilution assay, summary over all bacteria; settings: all bacteria tested other than B. subtilis
Description: as §1, §2, §3
as §4, with “After overnight incubation, each culture was diluted with the appropriate media (containing 0.002% polysorbate 80) to 1 × 10^6 colony-forming units (CFU)/mL as previously described.[12],[15],[16]” left out, “Cultures were further diluted to achieve 1 × 10^6 CFU/mL solutions.” left out
Aliquots of the 20 mg/mL peptide stock solutions were diluted to make a 64 μg/mL solution in Mueller-Hinton broth containing 0.002% polysorbate 80 and a 64 μg/mL solution in brain heart infusion broth containing 0.002% polysorbate 80. […] The optical density measurements were measured at 600 nm using a 96-well UV–vis plate reader (MultiSkan GO, Thermo Scientific). […]

[6] = test system: Gram-positive bacteria tested; settings: 16 h
Description: as §1, §2, §3, §4
Aliquots of the 20 mg/mL peptide stock solutions were diluted to make a 64 μg/mL solution in Mueller-Hinton broth containing 0.002% polysorbate 80 and a 64 μg/mL solution in brain heart infusion broth containing 0.002% polysorbate 80. The solutions were mixed by pipetting to ensure homogeneity. A 200-μL aliquot of a 64 μg/mL solution was transferred to a 96-well plate. 2-fold serial dilutions were made with media containing 0.002% polysorbate 80 across the 96-well plate to achieve a final volume of 100 μL in each well (initial concentrations ranging from 64 to 0.0625 μg/mL). […] The optical density measurements were measured at 600 nm using a 96-well UV–vis plate reader (MultiSkan GO, Thermo Scientific). […]

Q: `CC[C@H](C)[C@H](NC(=O)CNCc1ccccc1)C(=O)N[C@@H](CO)C(=O)N[C@H](C(=O)N[C@@H](CCC(N)=O)C(=O)N[C@H](C(=O)OC[C@H](N)C(=O)N[C@H]1C(=O)N[C@@H](C)C(=O)N[C@@H](CCCCN)C(=O)N[C@@H]([C@@H](C)CC)C(=O)O[C@H]1C)[C@@H](C)CC)[C@@H](C)CC` [compound 5, N-Bn-Gly1,Ile4,Gln5,[Ile6-O-Ser7],Lys10-teixobactin] (I: H-[Nphe]ISIQI / II: H-S[dT]AKI; ester I:C-II:1, II:2-II:C) was tested. Which “MIC Bacillus subtilis ATCC 6051” value [1] did it give?
A: 32 µg/mL (≈ 26.6 µM)

Q: What about the “antibiotic activity in words against B. subtilis” value ([1]; concentration range tested up to 32 μg/mL) of the same compound?
A: only very weakly active

Q: What about the “MIC Escherichia coli ATCC 10798” value [2] of the same compound?
A: >32 µg/mL

Q: And the “MIC Staphylococcus aureus (MRSA) ATCC 700698” value [3]?
A: >32 µg/mL

Q: What about the “MIC Staphylococcus aureus (MSSA) ATCC 29213” value [4] of the same compound?
A: >32 µg/mL

Q: And the “MIC Staphylococcus epidermidis ATCC 14990” value [5]?
A: >32 µg/mL

Q: And the “antibiotic activity in words against all other bacteria tested” value (all bacteria tested)?
A: inactive

Q: What does the source list for `CC[C@H](C)[C@H](NC(=O)[C@@H](Cc1ccccc1)NC)C(=O)N[C@@H](CO)C(=O)N[C@H](CCC(N)=O)C(=O)N[C@@H](C(=O)N[C@H](C(=O)N[C@@H](CO)C(=O)N[C@H]1C(=O)N[C@@H](C)C(=O)N[C@@H](CCCNC(=N)N)C(=O)N[C@@H]([C@@H](C)CC)C(=O)O[C@H]1C)[C@@H](C)CC)[C@@H](C)CC` [compound 6, Arg10-teixobactin]?
A: MIC B. subtilis [1]: ≤ 0.0625 µg/mL; MIC Bacillus subtilis ATCC 6051 [1]: ≤0.0313 µg/mL; MIC Escherichia coli ATCC 10798 [2]: >32 µg/mL; MIC Staphylococcus aureus (MRSA) ATCC 700698 [3]: 2 µg/mL (≈ 1.61 µM); MIC Staphylococcus aureus (MSSA) ATCC 29213 [4]: 2 µg/mL (≈ 1.61 µM); MIC Staphylococcus epidermidis ATCC 14990 [5]: 0.5 µg/mL (≈ 0.402 µM)

Q: `CC[C@H](C)[C@H](NC(=O)[C@@H](Cc1ccccc1)NC)C(=O)N[C@@H](CO)C(=O)N[C@H](CCC(N)=O)C(=O)N[C@@H](C(=O)N[C@H](C(=O)OC[C@H](N)C(=O)N[C@H]1C(=O)N[C@@H](C)C(=O)N[C@@H](CCCNC(=N)N)C(=O)N[C@@H]([C@@H](C)CC)C(=O)O[C@H]1C)[C@@H](C)CC)[C@@H](C)CC` [compound 7, [Ile6-O-Ser7],Arg10-teixobactin] (I: H-[dNMeF]IS[dQ][d(aIle)]I / II: H-S[dT]ARI; ester I:C-II:1, II:2-II:C) was tested. Which “MIC B. subtilis” value [1] did it give?
A: ≤ 0.0625 µg/mL

Q: What about the “MIC Bacillus subtilis ATCC 6051” value [1] of the same compound?
A: 0.0625 µg/mL (≈ 0.0502 µM)

Q: What about the “MIC Escherichia coli ATCC 10798” value [2] of the same compound?
A: >32 µg/mL

Q: What about the “MIC Staphylococcus aureus (MRSA) ATCC 700698” value [3] of the same compound?
A: 1 µg/mL (≈ 0.804 µM)

Q: And the “MIC Staphylococcus aureus (MSSA) ATCC 29213” value [4]?
A: 2 µg/mL (≈ 1.61 µM)

Q: And the “MIC Staphylococcus epidermidis ATCC 14990” value [5]?
A: 0.5 µg/mL (≈ 0.402 µM)

Q: What does the source list for `CC[C@H](C)[C@H](NC(=O)[C@H](CO)NC(=O)[C@@H](NC(=O)[C@@H](Cc1ccccc1)NC)[C@@H](C)CC)C(=O)N[C@@H](CCC(N)=O)C(=O)N[C@H](C(=O)OC[C@H](N)C(=O)N[C@H]1C(=O)N[C@@H](C)C(=O)N[C@@H](CCCNC(=N)N)C(=O)N[C@@H]([C@@H](C)CC)C(=O)O[C@H]1C)[C@@H](C)CC` [compound 8, Ile4,Gln5,[Ile6-O-Ser7],Arg10-teixobactin] (I: H-[dNMeF]ISIQI / II: H-S[dT]ARI; ester I:C-II:1, II:2-II:C)?
A: MIC Bacillus subtilis ATCC 6051 [1]: 2 µg/mL (≈ 1.61 µM); MIC Escherichia coli ATCC 10798 [2]: >32 µg/mL; MIC Staphylococcus aureus (MRSA) ATCC 700698 [3]: 4 µg/mL (≈ 3.21 µM); MIC Staphylococcus aureus (MSSA) ATCC 29213 [4]: 4 µg/mL (≈ 3.21 µM); MIC Staphylococcus epidermidis ATCC 14990 [5]: 2 µg/mL (≈ 1.61 µM); MIC values against the Gram-positive bacteria tested [6]: 2 to 4 µg/mL; fold reduced activity compared to the unswapped analogues 1, 2, 6, and 7 [6]: 2–4 fold

Q: Which results are given for `CN[C@H](CC(C)C)C(=O)N[C@H]1C(=O)N[C@@H](CC(N)=O)C(=O)N[C@H]2C(=O)N[C@H]3C(=O)N[C@H](C(=O)N[C@H](C(=O)O)c4cc(O)cc(O)c4-c4cc3ccc4O)[C@H](O)c3ccc(c(Cl)c3)Oc3cc2cc(c3O[C@@H]2O[C@H](CO)[C@@H](O)[C@H](O)[C@H]2O[C@H]2C[C@](C)(N)[C@H](O)[C@H](C)O2)Oc2ccc(cc2Cl)[C@H]1O` [vancomycin, reference compound]?
A: MIC ([1]; Bacillus subtilis, ATCC6051, 16 h, read-out: MIC Bacillus subtilis ATCC 6051): 0.125 to 0.25 µg/mL (≈ 0.0863 to 0.173 µM); MIC ([2]; Escherichia coli, ATCC10798, 16 h, read-out: MIC Escherichia coli ATCC 10798): > 32 µg/mL; MIC ([3]; Staphylococcus aureus, 16 h, read-out: MIC Staphylococcus aureus (MRSA) ATCC 700698): 4 µg/mL (≈ 2.76 µM); MIC ([4]; Staphylococcus aureus, 16 h, read-out: MIC Staphylococcus aureus (MSSA) ATCC 29213): 1 to 2 µg/mL (≈ 0.69 to 1.38 µM); MIC ([5]; Staphylococcus epidermidis, ATCC14990, 16 h, read-out: MIC Staphylococcus epidermidis ATCC 14990): 1 to 2 µg/mL (≈ 0.69 to 1.38 µM)
